# Assay results from patent EP0256125A1, “MEANS FOR PREVENTING MICROBIOLOGICAL OVERGROWING OF HARD SURFACE” (priority 1985, dated 1987).
# Columns and labels:
# [1] = Storage stability (qualitative); format: physicochemical; conditions: result in words
# Bakterien = experiment: Bactericidal activity, summary over all tested bacteria; format: cell-based
# Protocol: (§1) Die bakterizide Aktivität des Kalium N-(vinyloxyethyl)-dithiocarbamats gegenüber den Bakterien, die von der Oberfläche von Wänden und Decken der Produktionsräume von Brauereien und Fabriken zur Herstellunq von alkoholfreien Getränken ausgeschieden wurden und die zu p.p.Bacillus, Micrococcus, Pseudomonas, Escherichiae gehören, wurde geprüft.
# (§2) Es wurden wäßrige Lösungen des genannten Stoffes verschiedener Konzentration hergestellt, die so berechnet wurde, daß bei Einführung von 1 ml der Lösung in 25 ml geschmolzenen agarisierten Nährboden (45-50°C) die Konzentration des Stoffes im Nährboden von 0,003 bis 0,5% betrug. In 18 bis 24 Stunden wurde auf die Oberfläche des Nährbodens 0,1 ml der wäßrigen Suspension der eintägigen reinen Bakterienkulturen aufgetragen, die am Fleisch-Pepton-Agar gezüchtet wurden. Die Suspension wurde gleichmäßig verteilt. In Kontrollschalen wurden 0,1 ml Wasser auf der Oberfläche des Närhbodens verteilt.
# (§3) Die Inkubation führte man bei einer Temperatur von 37°C während 5 Tage durch.
# (§4) Die effektive Wirkung des Stoffes wurde nach dem Auftreten des Bakterienwachstums an der Oberfläche des Nährbodens bewertet.
# [2] = Solubility in solvents (qualitative)
# p. Escherichiae = experiment: Bactericidal activity, growth on agar medium; format: cell-based; conditions: 37°C, 5 Tage
# Protocol: as §1, §2, §3, §4
# p.Pseudomonas = experiment: Bactericidal activity, growth on agar medium; format: cell-based; conditions: 37°C, 5 Tage
# Protocol: as §1, §2, §3, §4
# p.Micrococcus = experiment: Bactericidal activity, growth on agar medium; format: cell-based; conditions: 37°C, 5 Tage
# Protocol: as §1, §2, §3, §4
# p.Bacillus = experiment: Bactericidal activity, growth on agar medium; format: cell-based; conditions: 37°C, 5 Tage
# Protocol: as §1, §2, §3, §4
# [3] = Acute toxicity in white mice; conditions: mouse, in vivo, po
# Penicillium chrysogenum = experiment: Fungicidal activity, inhibition of mycelium growth on wort agar; format: cell-based
# Text: (§5) Man prüfte die funguzide Aktivität von Zink-bis-(N-vi- nyloxyethyl)dithiocarbamat gegenüber den reinen Pilzkulturen: Gladosporium resinae, Cladosporium cladosporioides, Acremonium corvum, Acremonium charticola, Penicillium charlesii Smith, Walrotiela subiculesa, Geotrichum candidum Link, Oidium, Penicillium crysogenum. Die genannten Pilze wurden von den Oberflächen der Wände und Decken von Bierbrauereien und Werken für die Herstellung von alkoholfreien Getränken ausgeschieden.
# (§6) […] In eine der Petri-Schalen wurde Nährboden mit 1 ml Azeton (Kontrolle) gegossen.
# (§7) In 18 bis 20 Stunden nach dem Vergießen des Nährbodens in die Petri-Schalen führte man die Inokulation der reinen Pilzkultur durch, die vorher an einem Schräg-Würzeagar während 15 Tage gezüchtet wurden. Die Inkubation führte man bei einer Temperatur von 25 bis 27°C während 5 Tage durch. Danach wurde der Durchmesser der Pilzkolonien gemessen und der Prozentsatz der Hemmung des Wachstums des Myzeliums (S) nach der Abbott -Formel gezählt: [formula] worin dc Durchmesser der Pilzkolonien in Kontrolle ist, de =Durchmesser der Pilzkolonien in einer Schale mit dem Nährboden ist, der Zink-bis-(N-vinyloxyethyl)dithiocarbamat enthält.
# Oidium = experiment: as above; format: cell-based
# Text: as §5, §6, §7
# Cladosporium resinae = experiment: as above; format: cell-based; conditions: Amorphotheca resinae, 120 h, read-out: Hemmung des Myzeliums am 5. Tag des Wachstums, Cladosporium resinae
# Text: as §5, §6, §7
# [4] = test system: Penicillium charlesii Smith; experiment: as above; format: cell-based; conditions: Penicillium charlesii, 120 h, read-out: Hemmung des Myzeliums am 5. Tag des Wachstums, Penicillium charlesii Smith
# Text: as §5, §6, §7
# Geotrichum candidum Link = experiment: as above; format: cell-based
# Text: as §5, §6, §7
# Acremonium corvum = experiment: as above; format: cell-based; conditions: 120 h, read-out: Hemmung des Myzeliums am 5. Tag des Wachstums, Acremonium corvum
# Text: as §5, §6, §7
# Walrotiela subiculesa = experiment: as above; format: cell-based; conditions: 120 h, read-out: Hemmung des Myzeliums am 5. Tag des Wachstums, Walrotiela subiculesa
# Text: as §5, §6, §7
# [5] = test system: Cladosporium cladosporioides; experiment: as above; format: cell-based; conditions: Cladosporium cladosporioides, 120 h, read-out: Hemmung des Myzeliums am 5. Tag des Wachstums, Cladosporium cladosporioides
# Text: as §5, §6, §7
# Acremonium charticola = experiment: as above; format: cell-based; conditions: Acremonium charticola, 120 h, read-out: Hemmung des Myzeliums am 5. Tag des Wachstums, Acremonium charticola
# Text: as §5, §6, §7
# [6] = Konzentration des Stoffes 0,0015 %
# [7] = Konzentration des Stoffes 0,003 %
# [8] = Konzentration des Stoffes 0,00075 %
# [9] = Konzentration des Stoffes 0,006 %
# [10] = Konzentration des Stoffes 0,012 %
smiles,measurement,setting,value
C=COCCNC(=S)[S-].[K+] [Kalium-N-(vinyloxyethyl)dithiocarbamat],Lagerbeständigkeit,[1],lagerbeständig
same,"Konzentration, die das Wachstum der Bakterien vollständig hemmte",Bakterien,"0,05%"
same,Löslichkeit im Alkohol,[2]; Alkohol (Ethylalkohol),teilweise
same,Löslichkeit im Azeton,[2]; Azeton,teilweise
same,Löslichkeit im Diethylether,[2]; Diethylether,unlöslich
same,Löslichkeit in Wasser,[2]; Wasser,gut löslich
same,"Konzentration der Salze der N-(vinyloxyethyl)dithiocarbaminsäure (100%), die das Wachstum der Bakterien am 5. Tag des Wachstums hemmen, p. Escherichiae",p. Escherichiae,"0,05%"
same,"Konzentration der Salze der N-(vinyloxyethyl)dithiocarbaminsäure (100%), die das Wachstum der Bakterien am 5. Tag des Wachstums hemmen, p.Pseudomonas",p.Pseudomonas,"0,05%"
same,"Konzentration der Salze der N-(vinyloxyethyl)dithiocarbaminsäure (100%), die das Wachstum der Bakterien am 5. Tag des Wachstums hemmen, p.Micrococcus",p.Micrococcus,"0,05%"
same,"Konzentration der Salze der N-(vinyloxyethyl)dithiocarbaminsäure (100%), die das Wachstum der Bakterien am 5. Tag des Wachstums hemmen, p.Bacillus",p.Bacillus,"0,05%"
same,LD50,[3],1400 ± 350 mg/kg
same,"Hemmung des Myzeliums am 5. Tag des Wachstums, Penicillium chrysogenum",Penicillium chrysogenum; [6],30%
same,"Hemmung des Myzeliums am 5. Tag des Wachstums, Penicillium chrysogenum",Penicillium chrysogenum; [7],55%
same,inhibition of growth at 0.00075 %,"Penicillium chrysogenum; Penicillium chrysogenum, 120 h, Konzentration des Stoffes 0,00075 %, read-out: Hemmung des Myzeliums am 5. Tag des Wachstums, Penicillium chrysogenum",0%
same,inhibition of growth at 0.006 %,"Penicillium chrysogenum; Penicillium chrysogenum, 120 h, Konzentration des Stoffes 0,006 %, read-out: Hemmung des Myzeliums am 5. Tag des Wachstums, Penicillium chrysogenum",90%
same,inhibition of growth at 0.012 %,"Penicillium chrysogenum; Penicillium chrysogenum, 120 h, Konzentration des Stoffes 0,012 %, read-out: Hemmung des Myzeliums am 5. Tag des Wachstums, Penicillium chrysogenum",100%
same,inhibition of growth at 0.00075 %,"Oidium; 120 h, Konzentration des Stoffes 0,00075 %, read-out: Hemmung des Myzeliums am 5. Tag des Wachstums, Oidium",40%
same,inhibition of growth at 0.003 %,"Oidium; 120 h, Konzentration des Stoffes 0,003 %, read-out: Hemmung des Myzeliums am 5. Tag des Wachstums, Oidium",100%
same,inhibition of growth at 0.006 %,"Oidium; 120 h, Konzentration des Stoffes 0,006 %, read-out: Hemmung des Myzeliums am 5. Tag des Wachstums, Oidium",100%
same,inhibition of growth at 0.012 %,"Oidium; 120 h, Konzentration des Stoffes 0,012 %, read-out: Hemmung des Myzeliums am 5. Tag des Wachstums, Oidium",100%
same,"Hemmung des Myzeliums am 5. Tag des Wachstums, Oidium",Oidium; [6],96%
same,inhibition of growth,Cladosporium resinae; [8],70%
same,inhibition of growth at 0.0015 %,Cladosporium resinae; [6],100%
same,inhibition of growth at 0.003 %,Cladosporium resinae; [7],100%
same,inhibition of growth at 0.006 %,Cladosporium resinae; [9],100%
same,inhibition of growth at 0.012 %,Cladosporium resinae; [10],100%
same,inhibition of growth,[4]; [8],5%
same,inhibition of growth at 0.0015 %,[4]; [6],30%
same,inhibition of growth at 0.003 %,[4]; [7],55%
same,inhibition of growth at 0.006 %,[4]; [9],90%
same,inhibition of growth at 0.012 %,[4]; [10],100%
same,inhibition of growth at 0.00075 %,"Geotrichum candidum Link; Geotrichum candidum, 120 h, Konzentration des Stoffes 0,00075 %, read-out: Hemmung des Myzeliums am 5. Tag des Wachstums, Geotrichum candidum Link",10%
same,inhibition of growth at 0.012 %,"Geotrichum candidum Link; Geotrichum candidum, 120 h, Konzentration des Stoffes 0,012 %, read-out: Hemmung des Myzeliums am 5. Tag des Wachstums, Geotrichum candidum Link",100%
same,"Hemmung des Myzeliums am 5. Tag des Wachstums, Geotrichum candidum Link",Geotrichum candidum Link; [6],40%
same,"Hemmung des Myzeliums am 5. Tag des Wachstums, Geotrichum candidum Link",Geotrichum candidum Link; [7],100%
same,"Hemmung des Myzeliums am 5. Tag des Wachstums, Geotrichum candidum Link",Geotrichum candidum Link; [9],100%
same,inhibition of growth,Acremonium corvum; [8],94%
same,inhibition of growth at 0.0015 %,Acremonium corvum; [6],100%
same,inhibition of growth at 0.003 %,Acremonium corvum; [7],100%
same,inhibition of growth at 0.006 %,Acremonium corvum; [9],100%
same,inhibition of growth at 0.012 %,Acremonium corvum; [10],100%
same,inhibition of growth at 0.00075 %,Walrotiela subiculesa; [8],90%
same,inhibition of growth at 0.0015 %,Walrotiela subiculesa; [6],100%
same,inhibition of growth at 0.003 %,Walrotiela subiculesa; [7],100%
same,inhibition of growth at 0.006 %,Walrotiela subiculesa; [9],100%
same,inhibition of growth at 0.012 %,Walrotiela subiculesa; [10],100%
same,inhibition of growth,[5]; [8],100%
same,inhibition of growth at 0.0015 %,[5]; [6],100%
same,inhibition of growth at 0.003 %,[5]; [7],100%
same,inhibition of growth at 0.006 %,[5]; [9],100%
same,inhibition of growth at 0.012 %,[5]; [10],100%
same,inhibition of growth,Acremonium charticola; [8],90%
same,inhibition of growth at 0.0015 %,Acremonium charticola; [6],100%
same,inhibition of growth at 0.003 %,Acremonium charticola; [7],100%
same,inhibition of growth at 0.006 %,Acremonium charticola; [9],100%
same,inhibition of growth at 0.012 %,Acremonium charticola; [10],100%
